Here are results for 25 molecules from ChEMBL document CHEMBL2157931, “Discovery of a novel series of inhibitors of lymphoid tyrosine phosphatase with activity in human T cells” (J Med Chem, 2011).

SMILES strings stand for the structures. The source made the active and inactive calls. No cut-off for these calls is given here.

In assay [1] the target is T1, Tyrosine-protein phosphatase non-receptor type 22 (Homo sapiens, UniProt Q9Y2R2).
T1 sequence (Q9Y2R2 whole entry): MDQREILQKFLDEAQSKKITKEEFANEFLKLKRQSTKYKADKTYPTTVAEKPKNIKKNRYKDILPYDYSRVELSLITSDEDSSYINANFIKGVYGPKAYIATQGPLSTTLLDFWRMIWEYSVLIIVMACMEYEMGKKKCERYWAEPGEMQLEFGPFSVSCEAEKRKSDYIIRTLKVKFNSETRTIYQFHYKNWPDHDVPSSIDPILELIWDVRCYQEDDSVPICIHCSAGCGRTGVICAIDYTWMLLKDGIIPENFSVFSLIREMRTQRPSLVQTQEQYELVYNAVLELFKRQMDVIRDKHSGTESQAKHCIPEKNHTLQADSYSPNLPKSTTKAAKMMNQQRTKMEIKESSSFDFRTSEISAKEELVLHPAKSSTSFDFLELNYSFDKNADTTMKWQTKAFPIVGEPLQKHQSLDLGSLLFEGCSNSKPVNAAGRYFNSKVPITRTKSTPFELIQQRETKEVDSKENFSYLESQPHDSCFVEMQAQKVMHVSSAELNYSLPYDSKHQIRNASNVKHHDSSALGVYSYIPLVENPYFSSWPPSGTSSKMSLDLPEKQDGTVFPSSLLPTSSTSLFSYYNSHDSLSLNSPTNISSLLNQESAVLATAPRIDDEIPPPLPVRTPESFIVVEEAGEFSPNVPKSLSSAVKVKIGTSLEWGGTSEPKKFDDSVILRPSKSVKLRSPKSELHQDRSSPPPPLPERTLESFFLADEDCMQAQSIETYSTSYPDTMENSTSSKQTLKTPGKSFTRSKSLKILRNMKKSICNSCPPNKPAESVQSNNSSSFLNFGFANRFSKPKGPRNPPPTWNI
Description: Inhibition of LYP expressed in Escherichia coli BL21 using pNPP substrate

The target of assay [2] is T2, Low molecular weight phosphotyrosine protein phosphatase (Homo sapiens, UniProt P24666).
T2 sequence (P24666 whole entry): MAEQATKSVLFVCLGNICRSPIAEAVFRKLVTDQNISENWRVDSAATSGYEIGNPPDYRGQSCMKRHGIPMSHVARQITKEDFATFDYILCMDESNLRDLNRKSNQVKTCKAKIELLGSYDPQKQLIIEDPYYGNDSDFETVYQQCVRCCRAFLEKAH
Description: Inhibition of LMPTP-A expressed in Escherichia coli BL21 using pNPP substrate

The target of assay [3] is T3, Tyrosine-protein phosphatase non-receptor type 12 (Homo sapiens, UniProt Q05209).
T3 sequence (Q05209 whole entry): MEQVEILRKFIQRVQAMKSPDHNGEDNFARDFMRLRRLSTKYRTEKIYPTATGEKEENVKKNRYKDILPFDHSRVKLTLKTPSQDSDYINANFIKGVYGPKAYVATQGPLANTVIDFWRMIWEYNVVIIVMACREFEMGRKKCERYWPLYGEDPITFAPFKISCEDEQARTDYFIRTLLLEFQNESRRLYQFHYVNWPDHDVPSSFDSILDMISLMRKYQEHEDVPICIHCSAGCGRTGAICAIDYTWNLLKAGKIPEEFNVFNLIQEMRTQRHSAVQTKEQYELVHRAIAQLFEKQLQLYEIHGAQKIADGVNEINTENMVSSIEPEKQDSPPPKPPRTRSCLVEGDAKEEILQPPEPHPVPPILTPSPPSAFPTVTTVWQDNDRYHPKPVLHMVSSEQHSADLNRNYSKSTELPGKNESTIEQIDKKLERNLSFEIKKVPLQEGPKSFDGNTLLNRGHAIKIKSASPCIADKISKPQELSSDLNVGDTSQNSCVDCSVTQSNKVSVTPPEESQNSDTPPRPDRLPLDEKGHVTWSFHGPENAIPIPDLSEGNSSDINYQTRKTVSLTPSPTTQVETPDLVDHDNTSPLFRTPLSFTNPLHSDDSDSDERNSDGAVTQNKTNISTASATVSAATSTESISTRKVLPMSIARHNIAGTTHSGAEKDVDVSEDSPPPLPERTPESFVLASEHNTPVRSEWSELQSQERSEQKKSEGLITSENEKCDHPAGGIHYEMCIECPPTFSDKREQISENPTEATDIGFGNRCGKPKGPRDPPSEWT
Description: Inhibition of PTP-PEST expressed in Escherichia coli BL21 using pNPP substrate

In assay [4] the target is T4, Tyrosine-protein phosphatase non-receptor type 7 (Homo sapiens, UniProt P35236).
T4 sequence (P35236 whole entry): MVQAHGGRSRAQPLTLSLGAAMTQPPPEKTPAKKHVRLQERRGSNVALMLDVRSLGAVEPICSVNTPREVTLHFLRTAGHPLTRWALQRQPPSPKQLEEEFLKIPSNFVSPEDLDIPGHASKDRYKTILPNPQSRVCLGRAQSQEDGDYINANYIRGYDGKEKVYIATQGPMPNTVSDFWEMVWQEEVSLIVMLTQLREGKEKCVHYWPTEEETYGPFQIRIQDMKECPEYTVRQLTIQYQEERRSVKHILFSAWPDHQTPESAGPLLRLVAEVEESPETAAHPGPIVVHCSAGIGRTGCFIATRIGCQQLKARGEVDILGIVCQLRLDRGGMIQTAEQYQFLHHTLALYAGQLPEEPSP
Description: Inhibition of HePTP expressed in Escherichia coli BL21 using pNPP substrate

In assay [5] the target is T1, Tyrosine-protein phosphatase non-receptor type 22. This is another data set of the same source.
For assay [6] the target is unchanged. The source holds these as a separate data set.
Description: Inhibition of LYP expressed in Escherichia coli BL21 using increasing levels of ARLIED-NEpYTAREG substrate
The target of assay [7] is T5, Tyrosine-protein phosphatase non-receptor type 22 (Mus musculus) (UniProt P29352).
T5 sequence (whole entry): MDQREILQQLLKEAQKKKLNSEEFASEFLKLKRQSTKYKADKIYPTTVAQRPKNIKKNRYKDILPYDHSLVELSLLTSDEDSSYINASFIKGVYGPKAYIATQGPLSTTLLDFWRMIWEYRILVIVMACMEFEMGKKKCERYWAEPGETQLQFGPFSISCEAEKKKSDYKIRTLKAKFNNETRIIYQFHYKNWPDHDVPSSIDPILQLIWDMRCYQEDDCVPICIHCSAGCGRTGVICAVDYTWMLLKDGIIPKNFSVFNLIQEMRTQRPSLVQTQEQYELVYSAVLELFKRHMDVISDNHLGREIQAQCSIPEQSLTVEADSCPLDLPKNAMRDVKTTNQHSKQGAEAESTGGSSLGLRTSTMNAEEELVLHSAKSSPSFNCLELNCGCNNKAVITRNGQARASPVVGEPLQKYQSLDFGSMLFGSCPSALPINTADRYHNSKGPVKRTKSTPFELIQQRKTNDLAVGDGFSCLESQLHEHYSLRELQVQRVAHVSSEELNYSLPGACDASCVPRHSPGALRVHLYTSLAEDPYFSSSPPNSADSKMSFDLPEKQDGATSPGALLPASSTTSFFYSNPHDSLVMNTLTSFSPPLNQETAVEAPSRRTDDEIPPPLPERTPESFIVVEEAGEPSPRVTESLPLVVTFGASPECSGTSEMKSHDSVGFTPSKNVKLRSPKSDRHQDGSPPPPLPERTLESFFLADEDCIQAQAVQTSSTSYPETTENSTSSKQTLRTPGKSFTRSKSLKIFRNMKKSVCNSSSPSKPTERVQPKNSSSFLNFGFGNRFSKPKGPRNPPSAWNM
Briefly: Inhibition of LYP in anti-CD3 and antiCD28 antibody-stimulated C57BL/6 mouse CD8+ splenocytes assessed as increase in TCR signaling-stimulated CD69 expression at 50 uM incubated for 24 hrs (reference value: 5.3%). Details: scale not given: the % may be the effect or the level left.

The target in assay [8] is T5, Tyrosine-protein phosphatase non-receptor type 22 (Mus musculus). Briefly: Inhibition of LYP in anti-CD3 and antiCD28 antibody-stimulated C57BL/6 mouse CD4+ splenocytes assessed as increase in TCR signaling-stimulated CD69 expression at 100 uM incubated for 24 hrs (reference value: 29.2%). Set-up: scale not given: the % may be the effect or the level left.
For assay [9] the target is unchanged. Briefly: Inhibition of LYP in anti-CD3 and antiCD28 antibody-stimulated C57BL/6 mouse CD4+ splenocytes assessed as increase in TCR signaling-stimulated CD69 expression at 50 uM incubated for 24 hrs (reference value: 29.2%). Details: scale not given: the % may be the effect or the level left.
Assay [10] shares this target. The assay is described as follows: Inhibition of LYP in anti-CD3 and antiCD28 antibody-stimulated C57BL/6 mouse CD8+ splenocytes assessed as increase in TCR signaling-stimulated CD69 expression at 100 uM incubated for 24 hrs (reference value: 5.3%). Set-up: scale not given: the % may be the effect or the level left.
Assay [11] in a line: Inhibition of TCR signaling in anti-CD3 and anti-CD4 antibody stimulated mouse Ptpn22-/- T cells assessed as increase in Lck Y394 phosphorylation at 50 uM by Western blotting. Particulars: T-cell. (In general: In western blotting, separated proteins are transferred to a membrane and probed.)
For assay [12], the target named is T5, Tyrosine-protein phosphatase non-receptor type 22 (Mus musculus). The assay is described as follows: Inhibition of LYP-mediated TCR signaling in anti-CD3 and anti-CD4 antibody stimulated mouse Ptpn22+/+ T cells assessed as increase in Lck Y394 phosphorylation at 50 uM by Western blotting. As to conditions: T-cell.

As usually defined, the IC50 is the concentration needed to halve the response being measured. In general, Ki refers to a dissociation constant, usually derived from enzyme kinetics or from competition with a known ligand.

Consider `Cc1ccc2[nH]c(=O)c(C(c3nnnn3C3CCCC3)N3CCN(c4nc5ccccc5s4)CC3)cc2c1` (centres undefined), for which the half-maximal inhibitory concentration (IC50) in assay [1] turned out to be 30 µM.
For the molecule `Cc1ccc2cc(C#N)c(SCC(=O)NC3CCCCC3)nc2c1C`, the half-maximal inhibitory concentration (IC50) was 45.3 µM in assay [2], 21 µM in [3], 19.8 µM in [1] and 8 µM in assay [4].
Take `COc1ccc2cc(C#N)c(SCC(=O)Nc3cccc(C)c3C)nc2c1`: the IC50 worked out at 60.9 µM in assay [2], 18 µM in assay [3], 30.5 µM in [1] and 15 µM in [4].
`Cc1ccc2[nH]c(=O)c(C(c3nnnn3C3CCCC3)N(Cc3ccccc3)Cc3ccccc3)cc2c1` (centres undefined) came in with an IC50 in assay [1] of 13.3 µM.
For `Cc1ccc2[nH]c(=O)c(C(c3nnnn3C3CCCC3)N3CCN(C(c4ccccc4)c4ccccc4)CC3)cc2c1` (centres undefined), the Ki in assay [5] was 21.3 µM; in assay [6] it was 11 µM.
As for `Cc1ccc2sc(NC(=O)c3sc4ccccc4c3Cl)nc2c1`, the IC50 in assay [2] is above 90 µM; in assay [3] it was 14 µM; in assay [1] it was 29.5 µM; in assay [4], 8 µM.
Taken in the same sequence, the figures for `CCOc1ccc(NC(=O)CSc2nc3c(C)cc(C)cc3cc2C#N)cc1` were above 90 µM, 16 µM, 28.1 µM and 16 µM.
As to `Cc1ccc2[nH]c(=O)c(C(c3nnnn3C3CCCC3)N3CCCC4(CCCCC4)C3)cc2c1` (centres undefined), the Activity was 12.1% in assay [7], 38.9% in assay [8], 36.8% in [9] and 13.7% in [10]. In assay [11], the inhibition result is “inactive”. In assay [12], the inhibition entry was “Active”.
`Cc1ccc2[nH]c(=O)c(C(c3nnnn3C(C)C)N3CCCC4(CCCCC4)C3)cc2c1` (centres undefined) showed an IC50 in assay [1] of 21.2 µM.
As to `Cc1cccc2cc(C#N)c(SCC(=O)Nc3cccc(Cl)c3)nc12`, the IC50 in [2] was above 90 µM; in [3], 28 µM; in assay [1] it was 27.2 µM; in assay [4], 22 µM.
Molecule `Cc1ccc2[nH]c(=O)c(C(c3nnnn3C3CCCC3)N3CCN(C)CC3)cc2c1` (centres undefined) came in with a half-maximal inhibitory concentration (IC50) in assay [1] above 40 µM.
On the same count and under the same terms, to `COc1ccccc1N1CCN(C(c2cc3cc(C)ccc3nc2O)c2nnnn2C2CCCC2)CC1` (centres undefined) belongs above 40 µM; to `Cc1ccc2[nH]c(=O)c(C(c3nnnn3C3CCCC3)N3CCN(c4ccccc4)CC3)cc2c1` (centres undefined), 30.7 µM.
`Cc1ccc2cc(C#N)c(SCC(=O)Nc3ccc4c(c3)OCO4)nc2c1`: the IC50 in [2] was above 90 µM; in [3], 36 µM; in assay [1], 23.3 µM; in assay [4], 12 µM.
In assay [1], `COc1ccc(N2CCN(C(c3cc4cc(C)ccc4[nH]c3=O)c3nnnn3C3CCCC3)CC2)cc1` (centres undefined) registered an IC50 of 31.5 µM.
Take `COc1ccc(-n2ncc3c(SCC(=O)N4c5ccccc5CC4C)ncnc32)cc1` (centres undefined): the IC50 in assay [2] was above 90 µM; in assay [3], above 40 µM.
With `Cc1ccc2[nH]c(=O)c(C(c3nnnn3C3CCCC3)N3CCC(C)CC3)cc2c1` (centres undefined), it took 20.6 µM to reach half-maximal inhibition in [1] (IC50).
In the case of `Cc1ccc2[nH]c(=O)c(C(c3nnnn3-c3ccccc3)N3CCCC4(CCCCC4)C3)cc2c1` (centres undefined), in assay [1], inhibition was half-maximal at 11.2 µM (IC50).
In the case of `CCN1CCN(C(c2cc3cc(C)ccc3[nH]c2=O)c2nnnn2C2CCCC2)CC1` (centres undefined), the concentration for half-maximal inhibition (IC50) in [1] was above 40 µM.
The same measure, in the same setting: with `Cc1ccc2[nH]c(=O)c(C(c3nnnn3C3CCCC3)N3CCN(Cc4ccccc4)CC3)cc2c1` (centres undefined) the figure was above 40 µM; with `Cc1ccc2[nH]c(=O)c(C(c3nnnn3C3CCCC3)N3CCN(c4ccc(O)cc4)CC3)cc2c1` (centres undefined), above 40 µM.
Consider `Cc1ccc2[nH]c(=O)c(C(c3nnnn3C3CCCC3)N3CCCCC3)cc2c1` (centres undefined), for which the values for the IC50 in [1] and in [4] were 30.9 µM and above 75 µM, respectively.
`Cc1ccc2[nH]c(=O)c(C(c3nnnn3C3CCCC3)N3CCN(C4CCCCC4)CC3)cc2c1` (centres undefined) had a half-maximal inhibitory concentration (IC50) in assay [1] above 40 µM.
On the same count and under the same terms, with `Cc1ccc2[nH]c(=O)c(C(c3nnnn3C3CCCC3)N3CCN(c4ccc(F)cc4)CC3)cc2c1` (centres undefined) the figure was 30.5 µM.
In the case of `Cc1ccc(NC(=O)CSc2nc3c(C)c(C)ccc3cc2C#N)cc1C`, the IC50 in assay [2] is 53.3 µM; in assay [3] it was 27.5 µM; in [1] it was 26.6 µM; in assay [4] it was 20 µM.
